From patent US10993935B2, “Compositions and methods for treatment of lung infections” (priority 2018, dated 2021)

Tests used:
[1] = system: clinical mucoid isolate from a CF patient; test: Further test of screen hits on a clinical mucoid isolate; assay type: cell-based, Pseudomonas aeruginosa; conditions: compared with the other screen hits of Table 2
[2] = Adverse effects after nebulization in mice; assay type: in vivo, C57BL/6 mice; conditions: mouse, in vivo
Protocol: Drug Nebulization. C57BL/6 mice (n=8) were first exposed to 5 mL DMSO for 10 minutes to determine any adverse effects that may occur from using DMSO. Mice (n=16) were then exposed to TOB in 0.225% saline or RFX in DMSO via nebulization until the 5 mL drug mixture was depleted—typically 10-15 minutes. Nebulization was conducted using the pressure-based nebulizer and chamber purchased from Kent Scientific (Torrington, Conn.). TOB was nebulized at concentrations of 100 mg (n=4) or 400 mg (n=4) in 5 mL of 0.225% saline. RFX was nebulized at concentrations of 100 mg (n=4) or 400 mg (n=4) in 5 ml of 100% dimethyl sulfoxide. Mice were sacrificed immediately after nebulization via CO2 chamber. Lungs were then collected and homogenized. TOB concentrations were measured using ELISA. RFX concentrations were measured via HPLC.
The potential adverse effects of using DMSO were first assessed by nebulizing DMSO alone to a group of C57BL/6 mice (n=8). This type of mice was used due to their natural resistance against infection based on our previous studies. […] To determine the dosage of each drug received by the mice, the lungs were homogenized and drug concentrations of TOB and RFX were determined via ELISA and HPLC, respectively. […] The droplet size for both TOB and RFX were determined to be identical with the average droplet size for TOB and RFX being 5.07 μm and 5.02 μm, respectively. […]

P. aeruginosa strains = test: MIC and synergy testing (checkerboard/isobologram) of RFX and TOB; assay type: cell-based, Pseudomonas aeruginosa; conditions: strain CF003, NM
[3] = system: promoter PalgD of the alginate biosynthetic operon; test: PalgD-lacZ promoter reporter (β-galactosidase) activity; assay type: cell-based, Pseudomonas aeruginosa; conditions: PAO581, CF001, CF010; MIC1, MIC10, MIC30, MIC50 on PIA, 37° C., 24 h
Protocol: FIGS. 2A-2C include graphs showing RFX versus TOB mediated inhibition of the promoter PalgD activity of the alginate biosynthetic operon in laboratory and clinical isolates of P. aeruginosa. The β-galactosidase activity of PalgD was measured using the pLP170-PalgD-lacZ reporter construct in PAO581 (FIG. 2A), CF001 (FIG. 2B), and CF010 (FIG. 2C) grown on PIA plates with increasing concentrations of RFX or TOB (MIC1, MIC10, MIC30, MIC50) at 37° C. for 24 h. Relative expression mean values are shown ±SE of triplicate determinations. Two-way ANOVA was used to determine statistical significance set at a P value of <0.01 (****, P<0.0001).
While RFX inhibits alginate production, additional experiments were conducted to determine whether the inhibition was specific to alginate or whether it was a global suppression of transcription. To test this, the promoter reporter constructs PalgD_lacZ in pLP170 were used to quantify the promoter activity of the alginate biosynthetic operon PalgD. A promoter-less empty vector pLP170-lacZ was used as a negative control. Using the β-galactosidase reporter activity, the activity of PalgD in PAO581 was quantified (FIG. 2A), and two mucoid isolates (CF001 and CF010) from CF patients.

P. aeruginosa biofilms = test: Viable cell assay in preformed biofilms (MTT); assay type: cell-based, Pseudomonas aeruginosa; conditions: PAO1, CF001, CF010; 24 h biofilms treated at 3×MIC
Protocol: FIGS. 3A-3B include graphs showing biofilm and cell viability reduction from treatment with TOB and/or RFX, where (FIG. 3A) biofilms were grown for 24 h in a 96-well plate and then treated with TOB, RFX, or TOB and RFX at a concentration of 3×MIC, or where (FIG. 3B) biofilms were grown for 24 h in a 96-well plate and then treated with TOB, RFX, or TOB and RFX at concentration of 3×MIC. Two-way ANOVA analysis was used with statistical significance set as a P value of <0.01 (****, P<0.0001; **, P<0.001; *, P<0.01).
Viable Cell Assay. Viable cell counts were done to determine the reduction of viable cells in preformed biofilms treated with TOB and/or RFX. Briefly, following biofilm reduction protocol, biofilms were grown in a flat bottom 96-well microplate (Corning) using 200 μl LB of 1.0-1.5×10^5 inoculum of lab and clinical strains of non-mucoid and mucoid P. aeruginosa for 24 h at 37° C. After incubation, the media was removed, and plate was washed with PBS twice. New LB media containing 1-5×MIC90 of TOB and/or RFX was added to the plate in a checkerboard pattern. After 24 h growth at 37° C., the media was removed and replaced with methylthiazoltetrazolium (MTT; Sigma). After 1 h incubation, DMSO was added and plates were read via OD at 570 nm using SpectraMax i3x plate reader to determine viable cell differences between TOB and/or RFX. […]

CO[C@H]1/C=C/O[C@@]2(C)Oc3c(C)c(O)c4c(O)c(c5c(nc6cc(C)ccn65)c4c3C2=O)NC(=O)/C(C)=C\C=C\[C@H](C)[C@H](O)[C@@H](C)[C@@H](O)[C@@H](C)[C@H](OC(C)=O)[C@@H]1C [RFX, rifaximin]
inhibition of growth and mucoidy [1]: most effective drug to inhibit the growth and mucoidy | adverse effects [2]: no adverse effects | FIC RFX (P. aeruginosa strains): 0.25 | MIC RFX in Combination (P. aeruginosa strains; in combination with TOB): 1 | PalgD promoter activity (β-galactosidase reporter) [3]: more pronounced effect on promoter activity than TOB

NC[C@H]1O[C@H](O[C@H]2[C@H](O)[C@@H](O[C@H]3O[C@H](CO)[C@@H](O)[C@H](N)[C@H]3O)[C@H](N)C[C@@H]2N)[C@H](N)C[C@@H]1O [TOB, tobramycin]
viable cells in a preformed biofilm (P. aeruginosa biofilms): significantly reduced the number of viable cells
